Assay [1] has as its system MLL-rearranged AML and ALL leukemia cells. The experiment in a line: Dose-dependent growth study with patient-derived leukemia cell lines. Type of assay: cell-based, human. To be noted: different doses, 3 days. As to the method:
(§1) FIG. 5. Determinants of the Increased Sensitivity of MLL Leukemia Cells to IRAK Inhibition (A) IRAK4 inhibitor-specific inhibition of MLL leukemia cell proliferation. Multiple MLL leukemia and non-MLL leukemia or lymphoma cell lines were cultured with different doses of IRAK4 inhibitor for 3 days. Data are represented as mean±SD (n=3). (B) Cell growth of MLL-AF9-positive AML MM6 cells is inhibited by IRAK inhibition. Data are represented as mean±SD (n=3). […] The p value was determined with the hypergeometric test. […] (E and F) Depletion of LGALS1 (E) and LMO2 (F) results in reduced growth of MM6 cells. MM6 cells were transduced with shGFP control (GFPi) or two different lentiviral shRNA constructs. After selection with puromycin for 4 days, viable cells were seeded at 0.2 million/mL and cultured for 3 more days before cell viability counting. Data represent the mean±SD (n=3; **p<0.005, one-way ANOVA). See also FIG. 12.
(§2) Determinants of the Increased Sensitivity of MLL Leukemia Cells to IRAK Inhibition. To further determine the effectiveness of IRAK inhibition for MLL leukemia cell growth, we performed dose-dependent studies with multiple patient-derived leukemia cell lines, including MLL leukemia and non-MLL leukemia or lymphoma cells.

Assay [2] relates to MLL-AF9 leukemia. In words: Murine MLL-AF9 leukemia transplantation model. Type of assay: in vivo, C57BL/6 mice. The note with it: treatment from day 10 after transplantation; IRAK1/4 inhibitor 8 mg/kg, IRAK4 inhibitor 75 mg/kg i.p. every other day; vehicle mice all dead by 31 days.
Text: After transformation of MLL-AF9, c-Kit+ HSPCs were transplanted into lethally irradiated C57BL/6 mice with 1 3 106 transformed cells and 2 3 105 support cells. Leukemia cells from primary AML mice were isolated and transplanted into sublethally irradiated C57BL/6 mice. Drug treatments were started at day 10 or 19 after transplantation. (B) Kaplan-Meier survival curves of secondary transplanted C57BL/6 mice after vehicle and IRAK1/4 or IRAK4 inhibitor treatment at day 19 (blast phase). Vehicle or IRAK inhibitors were administered every other day by intraperitoneal injection for a total of five treatments. Leukemia was confirmed at the endpoint for each transplant mouse. […] The p values were calculated using the log rank test. […] The p values were calculated using the log rank test. […]
We further assessed the effects of the IRAK inhibitors in vivo using the murine MLL-AF9 leukemia transplantation model (FIG. 7A) (Volk et al., 2014). […]
Murine MLL-AF9 Leukemia Model. […] The mice were monitored for signs of acute leukemia for 2-3 months and euthanized when leukemia was evident (weight loss below 16.75 g, reduced mobility, malaise, palpable spleen, and hunched back). […]
Animal Treatment. […] Mice were monitored for leukemia development and leukemia was verified after the mice were sacrificed upon signs of illness (weight loss below 16.75 g, partial paralysis, malaise, palpable spleen, and hunched back).
Assay [3] concerns MLL-AF6-positive ML2 leukemia cells. In words: Dose-dependent growth study, ML2 cells. The class given is cell-based, human. To be noted: different doses, 3 days. As to the method:
as §1, §2

The test system of assay [4] is REH cells. The experiment in a line: REH cell proliferation (trypan blue, Vi-CELL XR). The class given is cell-based, human. To be noted: 500 nM IRAK4 inhibitor. As to the method:
FIG. 4. […] Viable cells were seeded at 0.2 million/mL, and they were monitored by trypan blue exclusion staining and counted using a Vi-CELL XR cell counter. Data are represented as mean±SD (n=3). […] Data are represented as mean±SD (n=3). (C) Venn diagram of deregulated genes in SEM cells by IRAK1/4 and IRAK4 inhibitors. […] (D) Venn diagram of deregulated genes in SEM and REH cells by both inhibitors. Little overlap was observed between REH and SEM cells. […] Each cluster is represented by different colors and a circle node represents each enriched term. (G) UBE2O depletion and IRAK inhibition affect a common subset of genes in SEM cells. […] Heatmaps represent Z score-normalized values. See also FIG. 11.
Stabilization of MLL through IRAK Inhibition and UBE2O Depletion Regulates a Specific Gene Regulatory Network in MLL Leukemia. To measure the consequence of stabilizing MLL in MLL leukemia cells, we determined the effects of IRAK inhibition on cell proliferation of REH (MLL-germline leukemia) and SEM (MLL-AFF1) cells. Both of these cell lines are derived from precursor B cell ALL patient blast cells, and, therefore, they have been studied when comparing non-MLL (REH) and MLL-dependent (SEM) leukemia gene expression (Guenther et al., 2008).

For `COc1cc2c(cc1OCCCN1CCN(C)CC1)ncc1c3ccc(C#N)cc3[nH]c21` [IRAK4 inhibitor], in assay [1], the “cell growth of MLL-rearranged versus non-MLL leukemia or lymphoma cells” value was “preferentially impeded cell growth of MLL-rearranged AML and ALL leukemia cells”. Besides, the “mice that still did not develop MLL-AF9 leukemia as of day 55” value in assay [2] is “four of nine”. The “sensitivity of ML2 cells (wild-type MLL allele deleted)” value in assay [3] was “not sensitive”. Moreover, the REH cell proliferation result in assay [4] is recorded as “no detectable effect”.

Values taken from patent publication US10059708B2, “Therapeutic targeting of the interleukin 1 receptor-associated kinase 4 (IRAK4) in leukemias characterized by rearrangements in the mixed lineage leukemia gene (MLL-r)” (Northwestern University, priority 2016, dated 2018).
